Converted amounts (≈) assume the structure as drawn.
Columns and labels:
E. coli ATCC 25922 = test: In vitro antimicrobial activity, MIC by broth micro-dilution; type: cell-based; conditions: for MIC: Escherichia coli, ATCC25922, read-out: MIC class, E. coli ATCC 25922
Protocol: (§1) In vitro antimicrobial activity of each compound was determined by measuring minimal inhibitor concentrations (MICs) using the broth micro-dilution technique as approved by the Clinical and Laboratory Standards Institute (CLSI). The microbiological panel examined contains a number of bacterial species including E. coli MG1655, P. aeruginosa, S. aureus, and S. epidermidis. In addition, the panel includes previously described pseudo-isogenic strains of these four species (P. A. Smith et al. Chem Biol 2010, 1223-1231), in which a specific proline residue in SPase (called LepB in Gram-negative organisms an SpsB in Gram-positive organisms) has been mutated to a different amino acid. The resulting strains have increased susceptibility to the arylomycin class of antibiotics. Analysis of the strains lacking this proline residue will increases the dynamic range of the assay, and comparison of the sensitivities of the isogenic pairs provides ongoing confirmation that the activity gained through derivatization is specific to the inhibition of SPase. Briefly, bacterial streaks were grown on Mueller Hinton Agar II (Difco™) with or without 5% lysed horse blood for a period of 24 hours at either 35° C. or 28° C. Bacterial colonies were suspended in cation adjusted Mueller Hinton broth and diluted to a final concentration of 1*10^7 colony forming units/ml. Two-fold serial dilutions of each compound were arrayed into 96-well plates (100 μl final volume per well) and 5 ul of the bacterial suspension will be added. […] MICs were periodically checked plating serial dilutions of MIC wells and quantitatively determining viable colonies.

[1] = tested on: S. aureus NCTC-8325 SpsB(P295); test: as above; type: cell-based; conditions: for MIC: Staphylococcus aureus, NCTC8325, read-out: MIC class, S. aureus NCTC-8325 SpsB(P295)
Protocol: as §1

S. epidermidis RP62A = test: as above; type: cell-based; conditions: for MIC: Staphylococcus epidermidis, RP62A, read-out: MIC class, S. epidermidis RP62A
Protocol: as §1

S. pneumoniae D39 = test: as above; type: cell-based; conditions: for MIC: Streptococcus pneumoniae, D39, read-out: MIC class, S. pneumoniae D39
Protocol: as §1

[2] = tested on: E. col ATCC 25922 LepB(P84L); test: as above; type: cell-based, E. coli; conditions: for MIC: Escherichia coli, ATCC25922, read-out: MIC class, E. col ATCC 25922 LepB(P84L)
Protocol: as §1

E. coli SPase = target: T1, E. coli SPase (Escherichia coli, UniProt P00803); test: Enzymatic fluorogenic substrate cleavage assay for IC50; type: biochemical
T1 construct: Full length His-tagged E. coli SPase proteins were expressed in E. coli BL21(DE3); His-tag; made in house; host or cells: E. coli BL21(DE3)
Protocol: (§2) Full length His-tagged E. coli SPase proteins were expressed in E. coli BL21(DE3) containing the plasmid pET23-lepB, P. A. Smith et al. Chem Biol 2010, 1223-1231. Briefly, saturated overnight cultures grown in 20 ml of Luria-Bertani medium supplemented with ampicillin were subcultures into 1.5 L of Luria-Bertani, and shaken at 37° C. until an optical density at 600 nm of 0.4-0.5 was achieved. Protein expression was induced with Isopropyl β-D-1-thiogalactopyranoside (ITPG) at a final concentration of […], and purified using nickel affinity chromatography. Full length His-tagged S. aureus SPase protein was expressed similarly from E. coli BL21(DE3) containing the plasmid pCDF1-SaSpsB or pCDF1-SaSpsB(P29S) and purified similarly to the E. coli protein with the following exceptions. SPase protein was solubilized using 300 mM NaCl, 20 mM Tris pH 8.06, 5 mM Imidazole, 10% glycerol, 1% Triton X-100, prior to purification in Ni-NTA Superflow resin and resin bound protein was washed in a similar buffer containing 1% Elugent in place of Triton X-100 prior to protein eluted in wash buffer supplemented with 300 mM imidazole. Protein purify was judged to exceed 95% by visual inspection of SDS-PAGE followed by Comassie staining. All protein concentrations were determined by BCA assay.
(§3) In addition to the equilibrium binding assays, compound activity is also characterized by measuring inhibition of E. coli and S. aureus substrate cleavage reactions using fluorogenic peptides developed at RQx Pharmaceuticals. Briefly, two fluorogenic peptide substrates (decanoyl-LSSPA Y^NO2 A ? ADK^abzPD (SEQ ID NO: 1) and decanyol-LTPTAY^NO2 A ? ASKK^abzDD (SEQ ID NO: 2)) have been synthesized, where abz is the fluorescence donor 2-aminobenzamide, YNO2 is the fluorescence acceptor 3-nitrotyrosine, and the cleavage site is indicated with an arrow. These substrates are processed with a second order rate constant (Kcat/KM) of 10^5 M^−1s^−1 for E. coli and S. aureus SPase enzymes, and cleavage results in a greater than 10-fold increase in fluorescence signal (excitation at 314 nm, emission at 416 nm) as measured using a SpectraMax M2 fluorescence microplate reader. Two-folder serial dilutions of compound are prepared in cleavage reaction buffer consisting of: 50 mM Tris-HCl pH 8.0, 100 mM NaCl, 10% glycerol, 1 mM EDTA, detergent (1% NP-40 or 0.1% Elugent™ for E. coli LepB or S. aureus SpsB respectively) and either 2.5 nM of E. coli SPase enzyme or 10 nM of S. aureus SPase enzyme. 40 μl aliquots of the compound dilution series in the protein/buffer solution is transferred to black 384-well polypropylene plates, and 10 μl of fluorogenic peptide at a concentration of 100 μM is added to initiate the reaction. The increase in fluorescence, corresponding to substrate cleavage, is monitored continuously at room temperature for 30 minutes and initial reaction rates are calculated based in the linear increase in fluorescence from the initial 30 minutes of the reaction. Reaction rates are plotted as a function of compound concentration, and IC50 values are determined nonlinear regression analysis (SoftMax® Pro v5.4) of the sigmoidal dose-response curve.

S. aureus SPase = target: T2, S. aureus SPase (Staphylococcus aureus, UniProt P0A070); test: as above; type: biochemical
T2 construct: Full length His-tagged S. aureus SPase protein was expressed similarly; His-tag; made in house; host or cells: E. coli BL21(DE3)
Protocol: as §2, §3

S. aurues NCTC-8325 = test: In vitro antimicrobial activity, MIC by broth micro-dilution; type: cell-based, S. aureus; conditions: for MIC: Staphylococcus aureus, NCTC8325, read-out: MIC class, S. aurues NCTC-8325
Protocol: as §1

CCCCCCCCCCCCCCCC(=O)N(C)[C@H](CO)C(=O)N[C@H](C)C(=O)NCC(=O)N(C)[C@@H]1C(=O)N[C@@H](C)C(=O)N[C@H](C(=O)N[C@@H](C)CO)Cc2ccc(O)c(c2)-c2cc1ccc2O [Compound 56]
MIC (E. coli ATCC 25922): > 64 µg/mL
MIC [1]: > 64 µg/mL
MIC (S. epidermidis RP62A): < 8 µg/mL
MIC (S. pneumoniae D39): 16 to 64 µg/mL (≈ 17.1 to 68.2 µM)
MIC [2]: > 64 µg/mL
IC50 (E. coli SPase): 1000 to 10000 nM
IC50 (S. aureus SPase): > 10000 nM

CCCCCCCCCCCCCCCC(=O)N(C)[C@H](CO)C(=O)N[C@H](C)C(=O)NCC(=O)N(C)[C@@H]1C(=O)N[C@@H](C)C(=O)N[C@H](C(=O)OC[C@H](C)N)Cc2ccc(O)c(c2)-c2cc1ccc2O [Compound 57]
MIC (E. coli ATCC 25922): > 64 µg/mL
MIC [1]: > 64 µg/mL
MIC (S. epidermidis RP62A): < 8 µg/mL
MIC (S. pneumoniae D39): 16 to 64 µg/mL (≈ 17.1 to 68.2 µM)
MIC [2]: 16 to 64 µg/mL (≈ 17.1 to 68.2 µM)
IC50 (E. coli SPase): 1000 to 10000 nM
IC50 (S. aureus SPase): 1000 to 10000 nM

CCCCCCCCCCCCCCCC(=O)N(C)C(CO)C(=O)N[C@H](C)C(=O)NCC(=O)N(C)[C@@H]1C(=O)N[C@@H](C)C(=O)NC(C(=O)NCC(=O)C(=O)N(C)C)Cc2ccc(O)c(c2)-c2cc1ccc2O (stereo partly shown) [Compound 59]
MIC (E. coli ATCC 25922): > 64 µg/mL
MIC [1]: > 64 µg/mL
MIC (S. epidermidis RP62A): < 8 µg/mL
MIC (S. pneumoniae D39): 16 to 64 µg/mL (≈ 16.1 to 64.4 µM)
MIC [2]: 16 to 64 µg/mL (≈ 16.1 to 64.4 µM)
MIC (S. aurues NCTC-8325): > 64 µg/mL
IC50 (E. coli SPase): < 1000 nM
IC50 (S. aureus SPase): 1000 to 10000 nM

CCCCCCCCCCCCCCCC(=O)N(C)[C@H](CO)C(=O)N[C@H](C)C(=O)NCC(=O)N(C)[C@@H]1C(=O)N[C@@H](C)C(=O)N[C@H](C(=O)NCC(=O)NS(C)(=O)=O)Cc2ccc(O)c(c2)-c2cc1ccc2O [Compound 60]
MIC (E. coli ATCC 25922): > 64 µg/mL
MIC [1]: > 64 µg/mL
MIC (S. epidermidis RP62A): < 8 µg/mL
MIC (S. pneumoniae D39): < 8 µg/mL
MIC [2]: < 8 µg/mL
MIC (S. aurues NCTC-8325): > 64 µg/mL
IC50 (E. coli SPase): < 1000 nM
IC50 (S. aureus SPase): 1000 to 10000 nM

CCCCc1ccc(-c2ccc(C(=O)N(C)[C@H](CO)C(=O)N[C@H](C)C(=O)N[C@@H](CCCCN)C(=O)N(C)[C@@H]3C(=O)N[C@@H](C)C(=O)N[C@H](C(=O)O)Cc4ccc(O)c(c4)-c4cc3ccc4O)cc2)cc1 [Compound 96]
MIC class, E. coli ATCC 25922 (E. coli ATCC 25922; E. coli ATCC 25922): a (MIC >64 μg/ml)
MIC class, S. aureus NCTC-8325 SpsB(P295) ([1]; S. aureus NCTC-8325 SpsB(P295)): a (MIC >64 μg/ml)
MIC class, S. epidermidis RP62A (S. epidermidis RP62A; S. epidermidis RP62A): b (MIC 16-64 μg/ml)
MIC class, S. pneumoniae D39 (S. pneumoniae D39; S. pneumoniae D39): a (MIC >64 μg/ml)
MIC class, E. col ATCC 25922 LepB(P84L) ([2]; E. col ATCC 25922 LepB(P84L)): b (MIC 16-64 μg/ml)
MIC class, S. aurues NCTC-8325 (S. aurues NCTC-8325; S. aurues NCTC-8325): a (MIC >64 μg/ml)

CCCCCCc1ccc(C(=O)N(C)[C@H](CO)C(=O)N[C@H](C)C(=O)N[C@@H](CCCCN)C(=O)N(C)[C@@H]2C(=O)N[C@@H](C)C(=O)N[C@H](C(=O)O)Cc3ccc(O)c(c3)-c3cc2ccc3O)cc1 [Compound 97]
MIC (E. coli ATCC 25922): > 64 µg/mL
MIC (S. epidermidis RP62A): 16 to 64 µg/mL (≈ 17.7 to 70.9 µM)
MIC (S. pneumoniae D39): > 64 µg/mL
MIC [2]: 16 to 64 µg/mL (≈ 17.7 to 70.9 µM)
MIC (S. aurues NCTC-8325): > 64 µg/mL

CCCCc1ccc(-c2ccc(C(=O)N[C@H](CO)C(=O)N[C@H](C)C(=O)N[C@@H](CCCCN)C(=O)N(C)[C@@H]3C(=O)N[C@@H](C)C(=O)N[C@H](C(=O)O)Cc4ccc(O)c(c4)-c4cc3ccc4O)cc2)cc1 [Compound 98]
MIC (E. coli ATCC 25922): > 64 µg/mL
MIC (S. epidermidis RP62A): 16 to 64 µg/mL (≈ 17.1 to 68.4 µM)
MIC (S. pneumoniae D39): > 64 µg/mL
MIC [2]: < 8 µg/mL
MIC (S. aurues NCTC-8325): > 64 µg/mL
